Laboratory results: ChEMBL document CHEMBL4342421, “Current scenario of tetrazole hybrids for antibacterial activity” (Eur J Med Chem, 2019)
Converted amounts (≈) assume the structure as drawn. Blank lines part the entries; values can stand above or below the molecule they belong to.

Tests used:
Aspergillus niger [1] = assay: Antifungal activity against Aspergillus niger; type: functional
Fusarium oxysporum = assay: Antifungal activity against Fusarium oxysporum; type: functional
Aspergillus flavus [2] = assay: Antifungal activity against Aspergillus flavus; type: functional
Escherichia coli [3] = assay: Antimicrobial activity against Escherichia coli ATCC 25922 after 24 hrs by disc diffusion method; type: functional; settings: ATCC 25922, 24 h
Aspergillus flavus [4] = assay: Antifungal activity against Aspergillus flavus NCIM 524 after 3 to 4 days; type: functional
Escherichia coli [5] = assay: Antimicrobial activity against Escherichia coli after 24 hrs by agar disk diffusion method; type: functional
Proteus mirabilis [6] = assay: Antimicrobial activity against Proteus mirabilis after 24 hrs by agar disk diffusion method; type: functional
Aspergillus fumigatus = assay: Antifungal activity against Aspergillus fumigatus NCIM 902 after 3 to 4 days; type: functional
Klebsiella pneumoniae [7] = assay: Antimicrobial activity against Klebsiella pneumoniae after 24 hrs by agar disk diffusion method; type: functional
[8] = tested on: Trichophyton mentagrophytes; assay: Antifungal activity against Trichophyton mentagrophytes after 3 to 4 days; type: functional
Pseudomonas aeruginosa [9] = assay: Antimicrobial activity against Pseudomonas aeruginosa ATCC 27853 after 24 hrs by disc diffusion method; type: functional; settings: ATCC 27853, 24 h
Staphylococcus aureus [10] = assay: Antimicrobial activity against Staphylococcus aureus ATCC 25923 after 24 hrs by disc diffusion method; type: functional; settings: ATCC 25923, 24 h
Pseudomonas aeruginosa [11] = assay: Antimicrobial activity against Pseudomonas aeruginosa after 24 hrs by agar disk diffusion method; type: functional
Talaromyces marneffei = assay: Antifungal activity against Penicillium marneffei after 3 to 4 days; type: functional
Klebsiella pneumoniae [12] = assay: Antimicrobial activity against Klebsiella pneumoniae after 24 hrs by disc diffusion method; type: functional
Prescottella equi = assay: Antimicrobial activity against Rhodococcus equi; type: functional; settings: Rhodococcus (subgen. Prescottella) equi
Proteus mirabilis [13] = assay: Antimicrobial activity against Proteus mirabilis; type: functional
Proteus vulgaris = assay: Antimicrobial activity against Proteus vulgaris; type: functional
Bacillus thuringiensis = assay: Antimicrobial activity against Bacillus thuringiensis; type: functional
Bacillus subtilis = assay: Antimicrobial activity against Bacillus subtilis; type: functional
Streptococcus pneumoniae = assay: Antimicrobial activity against Streptococcus pneumoniae; type: functional
Salmonella typhimurium = assay: Antimicrobial activity against Salmonella typhimurium; type: functional, Salmonella enterica subsp. enterica serovar Typhimurium; settings: Salmonella enterica
Escherichia coli [14] = assay: Antimicrobial activity against Escherichia coli assessed as zone of inhibition at 250 ug/ml; type: functional; settings: read-out: IZ
Pseudomonas aeruginosa [15] = assay: Antimicrobial activity against Pseudomonas aeruginosa assessed as zone of inhibition at 250 ug/ml; type: functional; settings: read-out: IZ
Candida albicans [16] = assay: Antifungal activity against Candida albicans; type: functional
Escherichia coli [17] = assay: Antimicrobial activity against Escherichia coli assessed as zone of inhibition at 250 ug/ml after 24 hrs by disk diffusion method; type: functional; settings: read-out: IZ
Escherichia coli [18] = assay: Antimicrobial activity against Escherichia coli; type: functional
Staphylococcus aureus [19] = assay: Antimicrobial activity against Staphylococcus aureus assessed as zone of inhibition at 250 ug/ml; type: functional; settings: read-out: IZ
Staphylococcus aureus [20] = assay: Antimicrobial activity against Staphylococcus aureus; type: functional
Bacillus cereus [21] = assay: Antimicrobial activity against Bacillus cereus; type: functional
Aspergillus niger [22] = assay: Antifungal activity against Aspergillus niger assessed as zone of inhibition at 250 ug/ml; type: functional; settings: read-out: IZ
Bacillus cereus [23] = assay: Antimicrobial activity against Bacillus cereus assessed as zone of inhibition at 250 ug/ml; type: functional; settings: read-out: IZ
Pseudomonas aeruginosa [24] = assay: Antimicrobial activity against Pseudomonas aeruginosa; type: functional
Candida albicans [25] = assay: Antifungal activity against Candida albicans assessed as zone of inhibition at 250 ug/ml; type: functional; settings: read-out: IZ
Staphylococcus aureus [26] = assay: Antimicrobial activity against Staphylococcus aureus assessed as zone of inhibition at 0.001 mol/cm3; type: functional
Bacillus cereus [27] = assay: Antimicrobial activity against Bacillus cereus assessed as zone of inhibition at 0.001 mol/cm3; type: functional
Escherichia coli [28] = assay: Antimicrobial activity against Escherichia coli assessed as zone of inhibition at 0.001 mol/cm3; type: functional

Structure (SMILES): CO/N=C(\C(=O)N[C@@H]1C(=O)N2C(C(=O)O)=C(CSc3nc(=O)c(O)nn3C)CS[C@H]12)c1csc(N)n1 [CEFTRIAXONE]
MIC (Prescottella equi): 0.063 to 8 µg/mL (≈ 0.114 to 14.4 µM)
MIC (Proteus mirabilis [13]): 0.063 to 8 µg/mL (≈ 0.114 to 14.4 µM)
MIC (Proteus vulgaris): 0.063 to 8 µg/mL (≈ 0.114 to 14.4 µM)
MIC (Bacillus thuringiensis): 0.063 to 8 µg/mL (≈ 0.114 to 14.4 µM)
MIC (Bacillus subtilis): 0.063 to 8 µg/mL (≈ 0.114 to 14.4 µM)
MIC (Streptococcus pneumoniae): 0.063 to 8 µg/mL (≈ 0.114 to 14.4 µM)
MIC (Salmonella typhimurium): 0.063 to 8 µg/mL (≈ 0.114 to 14.4 µM)

Structure (SMILES): CCC(C)n1ncn(-c2ccc(N3CCN(c4ccc(OCC5COC(Cn6cncn6)(c6ccc(Cl)cc6Cl)O5)cc4)CC3)cc2)c1=O (configuration not stated) [ITRACONAZOLE]
MIC (Escherichia coli [5]): 6.25 µg/mL (≈ 8.86 µM)
MIC (Proteus mirabilis [6]): 6.25 µg/mL (≈ 8.86 µM)
MIC (Klebsiella pneumoniae [7]): 6.25 µg/mL (≈ 8.86 µM)
MIC (Pseudomonas aeruginosa [11]): 6.25 µg/mL (≈ 8.86 µM)

Structure (SMILES): CCOC(=O)c1c(-n2cnnn2)sc(C(=O)c2ccccc2)c1C
inhibition zone (IZ) (Staphylococcus aureus [26]): 22 - 24 mm
inhibition zone (IZ) (Bacillus cereus [27]): 22 - 24 mm
inhibition zone (IZ) (Escherichia coli [28]): 22 - 24 mm

Continued, in another order:

MIC (Aspergillus niger [1]): 100 µg/mL (≈ 411 µM)
MIC (Fusarium oxysporum): 100 µg/mL (≈ 411 µM)
MIC (Aspergillus flavus [2]): 100 µg/mL (≈ 411 µM)
Structure (SMILES): COc1ccc(-n2cc(-c3nnn[nH]3)nn2)cc1

MIC (Escherichia coli [3]): 6.25 to 50 µg/mL (≈ 15.2 to 122 µM)
MIC (Aspergillus flavus [4]): 6.25 to 50 µg/mL (≈ 15.2 to 122 µM)
MIC (Escherichia coli [5]): 6.25 µg/mL (≈ 15.2 µM)
MIC (Proteus mirabilis [6]): 6.25 µg/mL (≈ 15.2 µM)
MIC (Aspergillus fumigatus): 6.25 to 50 µg/mL (≈ 15.2 to 122 µM)
MIC (Klebsiella pneumoniae [7]): 6.25 µg/mL (≈ 15.2 µM)
MIC [8]: 6.25 to 50 µg/mL (≈ 15.2 to 122 µM)
MIC (Pseudomonas aeruginosa [9]): 6.25 to 50 µg/mL (≈ 15.2 to 122 µM)
MIC (Staphylococcus aureus [10]): 6.25 to 50 µg/mL (≈ 15.2 to 122 µM)
MIC (Pseudomonas aeruginosa [11]): 6.25 µg/mL (≈ 15.2 µM)
MIC (Talaromyces marneffei): 6.25 to 50 µg/mL (≈ 15.2 to 122 µM)
MIC (Klebsiella pneumoniae [12]): 6.25 to 50 µg/mL (≈ 15.2 to 122 µM)
Structure (SMILES): c1ccc(Cn2nnnc2SCCCSc2nnnn2-c2ccccc2)cc1

MIC (Candida albicans [16]): 50 to 100 µg/mL (≈ 159 to 319 µM)
MIC (Escherichia coli [18]): 50 to 100 µg/mL (≈ 159 to 319 µM)
MIC (Aspergillus niger [1]): 50 to 100 µg/mL (≈ 159 to 319 µM)
MIC (Staphylococcus aureus [20]): 50 to 100 µg/mL (≈ 159 to 319 µM)
MIC (Bacillus cereus [21]): 50 to 100 µg/mL (≈ 159 to 319 µM)
MIC (Pseudomonas aeruginosa [24]): 50 to 100 µg/mL (≈ 159 to 319 µM)
Structure (SMILES): Clc1ccc(-c2nnnn2-c2nc3ccccc3s2)cc1
zone of inhibition at 250 µg/mL (Escherichia coli [14]): 16 to 26 mm
zone of inhibition at 250 µg/mL (Pseudomonas aeruginosa [15]): 16 to 26 mm
zone of inhibition at 250 µg/mL (Escherichia coli [17]): 18 to 26 mm
zone of inhibition at 250 µg/mL (Staphylococcus aureus [19]): 16 to 26 mm
zone of inhibition at 250 µg/mL (Aspergillus niger [22]): 16 to 26 mm
zone of inhibition at 250 µg/mL (Bacillus cereus [23]): 16 to 26 mm
zone of inhibition at 250 µg/mL (Candida albicans [25]): 16 to 26 mm
